Laboratory results: patent US6753345B2, “7-hexanolytaxol and methods for preparing the same” (Hauser, Inc., priority 1998, dated 2004)
Values after ≈ are worked out from the molar mass of the structure shown. Like-named read-outs stand apart in the source and are kept apart here.

What was measured:
SW-620 = assay: SRB cytotoxicity screening assay (Colon Cancer)
NCI-H226 = assay: SRB cytotoxicity screening assay (Non-Small Cell Lung Cancer); details: Homo sapiens, NCI-H226, 48 h, read-out: Log10 LC50 (converted)
HL-60(TB) [1] = details: HL-60(TB) (Leukemia); PG=0; 48 hour incubation
HT29 = assay: SRB cytotoxicity screening assay (Colon Cancer); details: Homo sapiens, HT-29, 48 h, read-out: Log10 LC50 (converted)
26 cell lines = assay: 26 cell line growth inhibition screen, sulforhodamine stain; assay type: cell-based; details: 26 cell lines, 48 hour drug treatment, sulforhodamine stain
EKVX = assay: SRB cytotoxicity screening assay (Non-Small Cell Lung Cancer); details: Homo sapiens, EKVX, 48 h, read-out: Log10 LC50 (converted)
MDA-MB-231/ATCC = assay: SRB cytotoxicity screening assay (Breast Cancer)
SK-MEL-2 = assay: SRB cytotoxicity screening assay (Melanoma); details: Homo sapiens, SK-MEL-2, 48 h, read-out: Log10 GI50 (converted)
COLO 205 = assay: SRB cytotoxicity screening assay (Colon Cancer); details: Homo sapiens, COLO 205, 48 h, read-out: Log10 GI50 (converted)
HCT-116 = assay: SRB cytotoxicity screening assay (Colon Cancer); details: HCT-116 (Colon Cancer); PG=0; 48 hour incubation
UO-31 = assay: SRB cytotoxicity screening assay (Renal Cancer); details: Homo sapiens, UO-31, 48 h
CCRF-CEM = assay: SRB cytotoxicity screening assay (Leukemia); details: for Log10 TGI: CCRF-CEM (Leukemia), PG=0, 48 hour incubation
SNB-19 = assay: SRB cytotoxicity screening assay (CNS Cancer)
MALME-3M = assay: SRB cytotoxicity screening assay (Melanoma); details: MALME-3M (Melanoma); PG=0; 48 hour incubation
HL-60(TB) [2] = assay: cells; details: Homo sapiens, HL-60, 48 h, read-out: Log10 GI50 (converted)
MOLT-4 = assay: SRB cytotoxicity screening assay (Leukemia)
K-562 = assay: SRB cytotoxicity screening assay (Leukemia)
OVCAR-3 = assay: SRB cytotoxicity screening assay (Ovarian)
HCC-2998 = assay: SRB cytotoxicity screening assay (Colon Cancer); details: HCC-2998 (Colon Cancer); PG=0; 48 hour incubation
SF-539 = assay: SRB cytotoxicity screening assay (CNS Cancer); details: Homo sapiens, SF-539, 48 h, read-out: Log10 GI50 (converted)
786-0 = assay: SRB cytotoxicity screening assay (Renal Cancer)
U251 = assay: SRB cytotoxicity screening assay (CNS Cancer)
MCF7/ADR-RES = assay: SRB cytotoxicity screening assay (Breast Cancer)
LOX-IMVI = LOX-IMVI (Melanoma); PG=0; 48 hour incubation
KM12 = assay: SRB cytotoxicity screening assay (Colon Cancer)

**Q.** CC(=O)O[C@H]1C(=O)[C@@]2(C)[C@H]([C@H](OC(=O)c3ccccc3)[C@]3(O)C[C@H](OC(=O)[C@H](O)[C@@H](NC(=O)c4ccccc4)c4ccccc4)C(C)=C1C3(C)C)[C@]1(OC(C)=O)CO[C@@H]1C[C@@H]2O [Paclitaxel, paclitaxel, reference compound] was tested. Which GI50 (SW-620; Homo sapiens, SW-620, 48 h, read-out: Log10 GI50 (converted)) did it give?
**A.** 0.00251 nM

**Q.** What about the “Log10 TGI” value (SW-620; SW-620 (Colon Cancer), PG=0, 48 hour incubation) of the same compound?
**A.** >−4.00 molar

**Q.** And the CC50 (NCI-H226)?
**A.** > 100000 nM

**Q.** And the “Log10 TGI” value (HL-60(TB) [1])?
**A.** >−4.53 molar

**Q.** What about the CC50 (HT29) of the same compound?
**A.** 33100 nM

**Q.** And the IC50 (26 cell lines; read-out: Mean IC50 (26 cell line Mean Growth inhibition IC50 value))?
**A.** 0.02 µg/mL (≈ 0.0234 µM)

**Q.** And the IC50 (26 cell lines; read-out: Min IC50 (lowest observed IC50 value in 26 cell line screen))?
**A.** 0.001 µg/mL (≈ 0.00117 µM)

**Q.** And the CC50 (EKVX)?
**A.** > 100000 nM

**Q.** And the GI50 (MDA-MB-231/ATCC; Homo sapiens, MDA-MB-231, 48 h, read-out: Log10 GI50 (converted))?
**A.** 2.88 nM

**Q.** What about the CC50 (MDA-MB-231/ATCC; Homo sapiens, MDA-MB-231, 48 h, read-out: Log10 LC50 (converted)) of the same compound?
**A.** 51300 nM

**Q.** What about the “Log10 TGI” value (MDA-MB-231/ATCC; MDA-MB-231/ATCC (Breast Cancer), PG=0, 48 hour incubation) of the same compound?
**A.** −4.84 molar

**Q.** And the GI50 (SK-MEL-2)?
**A.** 0.295 nM

**Q.** What about the GI50 (COLO 205) of the same compound?
**A.** 0.00851 nM

**Q.** And the “Log10 TGI” value (HCT-116)?
**A.** −4.82 molar

**Q.** And the GI50 (UO-31; read-out: Log10 GI50 (converted))?
**A.** 813 nM

**Q.** What about the CC50 (UO-31; read-out: Log10 LC50 (converted)) of the same compound?
**A.** > 100000 nM

**Q.** And the “Log10 TGI” value (CCRF-CEM)?
**A.** >−4.00 molar

**Q.** And the “Log10 TGI” value (CCRF-CEM; listed as paclitaxel)?
**A.** greater than −4.00 molar

**Q.** And the GI50 (CCRF-CEM; Homo sapiens, CCRF-CEM, 48 h, read-out: Log10 GI50 (converted))?
**A.** 0.00245 nM

**Q.** And the GI50 (SNB-19; Homo sapiens, SNB-19, 48 h, read-out: Log10 GI50 (converted))?
**A.** 1.05 nM

**Q.** What about the CC50 (SNB-19; Homo sapiens, SNB-19, 48 h, read-out: Log10 LC50 (converted)) of the same compound?
**A.** > 100000 nM

**Q.** And the “Log10 TGI” value (SNB-19; SNB-19 (CNS Cancer), PG=0, 48 hour incubation)?
**A.** >−4.00 molar

**Q.** And the “Log10 TGI” value (MALME-3M)?
**A.** −4.46 molar

**Q.** What about the GI50 (HL-60(TB) [2]) of the same compound?
**A.** 0.00269 nM

**Q.** And the GI50 (MOLT-4; Homo sapiens, MOLT-4, 48 h, read-out: Log10 GI50 (converted))?
**A.** 0.00851 nM

**Q.** And the CC50 (MOLT-4; Homo sapiens, MOLT-4, 48 h, read-out: Log10 LC50 (converted))?
**A.** > 100000 nM

**Q.** And the “Log10 TGI” value (MOLT-4; MOLT-4 (Leukemia), PG=0, 48 hour incubation)?
**A.** >−4.00 molar

**Q.** What about the GI50 (K-562; Homo sapiens, K562, 48 h, read-out: Log10 GI50 (converted)) of the same compound?
**A.** 0.0148 nM

**Q.** And the CC50 (K-562; Homo sapiens, K562, 48 h, read-out: Log10 LC50 (converted))?
**A.** > 100000 nM

**Q.** What about the “Log10 TGI” value (K-562; K-562 (Leukemia), PG=0, 48 hour incubation) of the same compound?
**A.** >−4.00 molar

**Q.** And the GI50 (OVCAR-3; Homo sapiens, OVCAR-3, 48 h, read-out: Log10 GI50 (converted))?
**A.** 0.0398 nM

**Q.** And the “Log10 TGI” value (OVCAR-3; OVCAR-3 (Ovarian), PG=0, 48 hour incubation)?
**A.** −4.55 molar

**Q.** What about the “Log10 TGI” value (HCC-2998) of the same compound?
**A.** −4.77 molar

**Q.** And the GI50 (SF-539)?
**A.** 0.00813 nM

**Q.** What about the “Log10 TGI” value (786-0; 786-0 (Renal Cancer), PG=0, 48 hour incubation) of the same compound?
**A.** >−4.00 molar

**Q.** What about the GI50 (786-0; Homo sapiens, 786-0, 48 h, read-out: Log10 GI50 (converted)) of the same compound?
**A.** 9.77 nM

**Q.** What about the CC50 (786-0; Homo sapiens, 786-0, 48 h, read-out: Log10 LC50 (converted)) of the same compound?
**A.** > 100000 nM

**Q.** What about the GI50 (U251; Homo sapiens, U-251, 48 h, read-out: Log10 GI50 (converted)) of the same compound?
**A.** 0.00513 nM

**Q.** What about the “Log10 TGI” value (U251; U251 (CNS Cancer), PG=0, 48 hour incubation) of the same compound?
**A.** −4.32 molar

**Q.** What about the GI50 (MCF7/ADR-RES; Homo sapiens, MCF7, 48 h, read-out: Log10 GI50 (converted)) of the same compound?
**A.** 3.31 nM

**Q.** What about the CC50 (MCF7/ADR-RES; Homo sapiens, MCF7, 48 h, read-out: Log10 LC50 (converted)) of the same compound?
**A.** > 100000 nM

**Q.** What about the “Log10 TGI” value (MCF7/ADR-RES; MCF7/ADR-RES (Breast Cancer), PG=0, 48 hour incubation) of the same compound?
**A.** >−4.00 molar

**Q.** And the “Log10 TGI” value (LOX-IMVI)?
**A.** −4.65 molar

**Q.** What about the GI50 (KM12; Homo sapiens, KM12, 48 h, read-out: Log10 GI50 (converted)) of the same compound?
**A.** 0.00372 nM

**Q.** What about the “Log10 TGI” value (KM12; KM12 (Colon Cancer), PG=0, 48 hour incubation) of the same compound?
**A.** −4.36 molar
